What was measured:
[1] = molecular target: T1, recombinant human ACC2 (rhACC2) (Homo sapiens, UniProt O00763, V2141I); assay: recombinant hACC2 Transcreener ADP detection FP assay; format: biochemical; settings: 50 μM ATP, 30 μM acetyl-CoA
T1 construct: a full length Cytomax clone of ACC2 was purchased from Cambridge Bioscience Limited; made in house; host or cells: CHO cells, tetracycline-induced (PcDNA5 FRT TO-TOPO)
Experimental: (§1) For example direct inhibition of ACC activity, for the compound of Formula (I) was determined using preparations of recombinant human ACC1 (rhACC1) and recombinant human ACC2 (rhACC2). Representative sequences of the recombinant human ACC1 and ACC2 that can be used in the assay are provided herein as SEQ ID NO. 1 and SEQ. ID NO. 2, respectively.
[3] Preparation of rhACC2. Human ACC2 inhibition was measured using purified recombinant human ACC2 (hrACC2). Briefly, a full length Cytomax clone of ACC2 was purchased from Cambridge Bioscience Limited and was sequenced and subcloned into PcDNA5 FRT TO-TOPO (Invitrogen, Carlsbad, Calif.). The ACC2 was expressed in CHO cells by tetracycline induction and harvested in 5 liters of DMEM/F12 with glutamine, biotin, hygromycin and blasticidin with 1 μg/mL tetracycline (Invitrogen, Carlsbad, Calif.). The conditioned medium containing ACC2 was then applied to a Softlink Soft Release Avidin column (Promega, Madison, Wis.) and eluted with 5 mM biotin. 4 mgs of ACC2 were eluted at a concentration of 0.05 mg/mL (determined by A280) with an estimated purity of 95% ([…]). The purified ACC2 was dialyzed in 50 mM Tris, 200 mM NaCl, 4 mM DTT, 2 mM EDTA, and 5% glycerol. The pooled protein was frozen and stored at −80° C., with no loss of activity upon thawing. For measurement of ACC2 activity and assessment of ACC2 inhibition, test compounds were dissolved in DMSO and added to the rhACC2 enzyme as a 5× stock with a final DMSO concentration of 1%.
[4] Measurement of human ACC2 inhibition. hACC2 was assayed in a Costar #3676 (Costar, Cambridge, Mass.) 384-well plate using the Transcreener ADP detection FP assay kit (Bellbrook Labs, Madison, Wis.) using the manufacturer's recommended conditions for a 50 uM ATP reaction. The final conditions for the assay were 50 mM HEPES, pH 7.2, 5 mM MgCl2, 5 mM tripotassium citrate, 2 mM DTT, 0.1 mg/mL BSA, 30 μM acetyl-CoA, 50 μM ATP, and 8 mM KHCO3. Typically, a 10 μl reaction was run for 50 min at 25° C., and 10 μl of Transcreener stop and detect buffer was added and the combination incubated at room temp for an additional 1 hour. The data was acquired on an Envision Fluorescence reader (Perkinelmer) using a 620 excitation Cy5 FP general dual mirror, 620 excitation Cy5 FP filter, 688 emission (S) and a 688 (P) emission filter.
(§2) The results using the recombinant hACC1 and recombinant hACC2 Transcreener assays described above are summarized in the table below for the Compounds of Formula (I) exemplified in the Examples above.

[2] = molecular target: T2, recombinant human ACC1 (rhACC1) (Homo sapiens, UniProt Q13085, DEL44-44); assay: recombinant hACC1 Transcreener ADP detection FP assay; format: biochemical; settings: 50 μM ATP, 30 μM acetyl-CoA
T2 construct: recombinant baculovirus containing full length human ACC1 cDNA; made in house; host or cells: SF9 insect cells, recombinant baculovirus
Experimental: as §1
[1] Preparation of rhACC1. Two liters of SF9 cells, infected with recombinant baculovirus containing full length human ACC1 cDNA, were suspended in ice-cold lysis buffer (25 mM Tris, pH 7.5; 150 mM NaCl; 10% glycerol; 5 mM imidazole (EMD Bioscience; Gibbstown, N.J.); 2 mM TCEP (BioVectra; Charlottetown, Canada); Benzonase nuclease (10000 U/100 g cell paste; Novagen; Madison, Wis.); EDTA-free protease inhibitor cocktail (1 tab/50 mL; Roche Diagnostics; Mannheim, Germany). Cells were lysed by 3 cycles of freeze-thaw and centrifuged at 40,000×g for 40 minutes (4° C.). Supernatant was directly loaded onto a HisTrap FF crude column (GE Healthcare; Piscataway, N.J.) and eluted with an imidazole gradient up to 0.5 M over 20 column volumes (CV). ACC1-containing fractions were pooled and diluted 1:5 with 25 mM Tris, pH 7.5, 2 mM TCEP, 10% glycerol and direct loaded onto a CaptoQ (GE Healthcare) column and eluted with an NaCl gradient up to 1 M over 20 CV's. Phosphate groups were removed from purified ACC1 by incubation with lambda phosphatase (100 U/10 μM target protein; New England Biolabs; Beverly, Mass.) for 14 hours at 4° C.; okadaic acid was added (1 μM final concentration; Roche Diagnostics) to inhibit the phosphatase. Purified ACC1 was exchanged into 25 mM Tris, pH 7.5, 2 mM TCEP, 10% glycerol, 0.5 M NaCl by 6 hour dialysis at 4° C. Aliquots were prepared and frozen at −80° C.
[2] Measurement of rhACC1 inhibition. hACC1 was assayed in a Costar #3676 (Costar, Cambridge, Mass.) 384-well plate using the Transcreener ADP detection FP assay kit (Bellbrook Labs, Madison, Wis.) using the manufacturer's recommended conditions for a 50 μM ATP reaction. The final conditions for the assay were 50 mM HEPES, pH 7.2, 10 mM MgCl2, 7.5 mM tripotassium citrate, 2 mM DTT, 0.1 mg/mL BSA, 30 μM acetyl-CoA, 50 μM ATP, and 10 mM KHCO3 Typically, a 10 μl reaction was run for 120 min at 25° C., and 10 μl of Transcreener stop and detect buffer was added and the combination incubated at room temp for an additional 1 hour. The data was acquired on a Envision Fluorescence reader (Perkinelmer) using a 620 excitation Cy5 FP general dual mirror, 620 excitation Cy5 FP filter, 688 emission (S) and a 688 (P) emission filter.
as §2

T1 sequence (O00763 whole entry V2141I): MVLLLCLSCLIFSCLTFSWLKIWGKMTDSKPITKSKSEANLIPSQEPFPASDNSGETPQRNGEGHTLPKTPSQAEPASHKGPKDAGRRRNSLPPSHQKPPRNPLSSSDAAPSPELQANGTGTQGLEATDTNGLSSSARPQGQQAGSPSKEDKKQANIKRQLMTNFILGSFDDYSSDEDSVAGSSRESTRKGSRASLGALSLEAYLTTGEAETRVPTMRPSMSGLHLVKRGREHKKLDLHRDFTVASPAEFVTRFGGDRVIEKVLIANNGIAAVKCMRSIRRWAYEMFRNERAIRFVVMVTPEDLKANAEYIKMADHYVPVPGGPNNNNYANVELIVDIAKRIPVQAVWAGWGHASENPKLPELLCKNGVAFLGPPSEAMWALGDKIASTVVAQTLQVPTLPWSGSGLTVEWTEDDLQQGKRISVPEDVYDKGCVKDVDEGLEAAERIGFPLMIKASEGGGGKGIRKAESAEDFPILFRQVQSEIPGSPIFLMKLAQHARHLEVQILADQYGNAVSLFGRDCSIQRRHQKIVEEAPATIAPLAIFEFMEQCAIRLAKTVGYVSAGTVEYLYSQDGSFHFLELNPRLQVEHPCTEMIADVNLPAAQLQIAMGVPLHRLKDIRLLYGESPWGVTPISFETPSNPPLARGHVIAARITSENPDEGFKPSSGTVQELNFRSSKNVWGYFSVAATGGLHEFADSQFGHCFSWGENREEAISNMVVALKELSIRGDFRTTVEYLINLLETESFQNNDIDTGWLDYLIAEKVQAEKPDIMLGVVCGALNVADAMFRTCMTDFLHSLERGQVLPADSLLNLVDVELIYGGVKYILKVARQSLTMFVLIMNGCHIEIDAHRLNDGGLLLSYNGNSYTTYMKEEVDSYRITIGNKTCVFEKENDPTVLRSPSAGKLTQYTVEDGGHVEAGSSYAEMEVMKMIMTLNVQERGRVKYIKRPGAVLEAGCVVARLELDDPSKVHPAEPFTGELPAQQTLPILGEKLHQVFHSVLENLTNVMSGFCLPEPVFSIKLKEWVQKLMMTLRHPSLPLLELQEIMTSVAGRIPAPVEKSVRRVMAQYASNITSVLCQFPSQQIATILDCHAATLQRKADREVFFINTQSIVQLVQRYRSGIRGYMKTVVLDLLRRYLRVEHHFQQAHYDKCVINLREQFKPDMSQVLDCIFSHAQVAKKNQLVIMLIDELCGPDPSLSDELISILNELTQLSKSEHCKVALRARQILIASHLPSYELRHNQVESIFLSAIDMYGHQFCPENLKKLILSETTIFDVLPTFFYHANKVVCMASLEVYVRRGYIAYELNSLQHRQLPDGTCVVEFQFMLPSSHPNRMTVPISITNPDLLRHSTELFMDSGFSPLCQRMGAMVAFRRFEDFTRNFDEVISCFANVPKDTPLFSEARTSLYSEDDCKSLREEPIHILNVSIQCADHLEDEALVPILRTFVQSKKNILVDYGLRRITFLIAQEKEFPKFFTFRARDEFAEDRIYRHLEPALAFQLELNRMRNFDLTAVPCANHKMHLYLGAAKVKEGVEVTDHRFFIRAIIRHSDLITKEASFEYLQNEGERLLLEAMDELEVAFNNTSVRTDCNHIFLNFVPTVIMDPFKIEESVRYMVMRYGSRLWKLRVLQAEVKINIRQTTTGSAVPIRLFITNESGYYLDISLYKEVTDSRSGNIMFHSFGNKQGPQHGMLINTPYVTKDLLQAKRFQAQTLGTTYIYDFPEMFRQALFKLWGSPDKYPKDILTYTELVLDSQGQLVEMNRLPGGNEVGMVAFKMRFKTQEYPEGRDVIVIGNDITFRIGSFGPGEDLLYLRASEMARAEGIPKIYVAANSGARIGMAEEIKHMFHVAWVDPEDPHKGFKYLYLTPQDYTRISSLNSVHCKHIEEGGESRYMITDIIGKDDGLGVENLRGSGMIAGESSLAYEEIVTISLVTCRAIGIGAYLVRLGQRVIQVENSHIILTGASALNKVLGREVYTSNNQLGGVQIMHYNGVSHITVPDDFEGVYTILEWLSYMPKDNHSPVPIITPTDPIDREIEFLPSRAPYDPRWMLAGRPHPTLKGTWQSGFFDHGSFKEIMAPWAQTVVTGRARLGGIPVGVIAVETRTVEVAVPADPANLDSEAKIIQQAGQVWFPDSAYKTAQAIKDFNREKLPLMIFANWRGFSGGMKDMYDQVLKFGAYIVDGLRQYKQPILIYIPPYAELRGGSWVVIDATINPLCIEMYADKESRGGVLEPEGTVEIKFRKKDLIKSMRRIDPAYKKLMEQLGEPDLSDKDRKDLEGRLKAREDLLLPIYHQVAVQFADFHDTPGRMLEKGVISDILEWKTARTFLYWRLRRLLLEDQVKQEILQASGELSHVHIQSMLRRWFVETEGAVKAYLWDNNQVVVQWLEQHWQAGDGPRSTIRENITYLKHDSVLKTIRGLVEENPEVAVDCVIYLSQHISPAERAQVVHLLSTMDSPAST

| SMILES | IC50 [1] [nM] | IC50 [2] [nM] |
| --- | --- | --- |
| CC(C)n1ncc2c1C(=O)CC1(CCN(C(=O)c3ccc4ccc(N)nc4c3)CC1)C2 [Example 25, 1′-[(2-aminoquinolin-7-yl)carbonyl]-1-isopropyl-1,4-dihydrospiro[indazole-5,4′-piperidin]-7(6H)-one] | 10 | 12 |
| CNc1nc2cc(C(=O)N3CCC4(CC3)CC(=O)c3c(cnn3C(C)C)C4)ccc2[nH]1 [Example 20, 1-isopropyl-1′-{[2-(methylamino)-1H-benzimidazol-5-yl]carbonyl}-1,4-dihydrospiro[indazole-5,4′-piperidin]-7(6H)-one] | 3 | 13 |
| CC(C)n1ncc2c1C(=O)CC1(CCN(C(=O)c3cnc4ccc(OCC(N)=O)cc4c3)CC1)C2 [Example 24, 2-({3-[(1-isopropyl-7-oxo-1,4,6,7-tetrahydro-1′H-spiro[indazole-5,4′-piperidin]-1′-yl)carbonyl]quinolin-6-yl}oxy)acetamide] | 20 | 43 |
| COc1cc2cc(C(=O)N3CCC4(CC3)CC(=O)c3c(cnn3C(C)C)C4)cnc2cc1C(N)=O [Example 22, 3-[(1-isopropyl-7-oxo-1,4,6,7-tetrahydro-1′H-spiro[indazole-5,4′-piperidin]-1′-yl)carbonyl]-6-methoxyquinoline-7-carboxamide] | 6.9 | 30 |
| O=C1CC2(CCN(C(=O)c3ccc4[nH]ncc4c3)CC2)Cc2cn(C34CC(C3)C4)nc21 [Example 48, 2-bicyclo[1.1.1]pent-1-yl-1′-(1H-indazol-5-ylcarbonyl)-2,4-dihydrospiro[indazole-5,4′-piperidin]-7(6H)-one] | 5.6 | 32 |
| NC(=O)c1n[nH]c2ccc(C(=O)N3CCC4(CC3)CC(=O)c3c(cnn3C35CC(C3)C5)C4)cc12 [Example 49, 5-[(1-bicyclo[1.1.1]pent-1-yl-7-oxo-1,4,6,7-tetrahydro-1′H-spiro[indazole-5,4′-piperidin]-1′-yl)carbonyl]-1H-indazole-3-carboxamide] | 8.4 | 12 |
| CC(C)(C)n1cc2c(n1)C(=O)CC1(CCN(C(=O)c3ccc4c(C#N)n[nH]c4c3)CC1)C2 [Example 41] | 3.7 | 18 |
| CC(C)n1ncc2c1C(=O)CC1(CCN(C(=O)c3cnc4c(C(N)=O)c[nH]c4c3)CC1)C2 [Example 3, 6-[(1-isopropyl-7-oxo-1,4,6,7-tetrahydro-1′H-spiro[indazole-5,4′-piperidin]-1′-yl)carbonyl]-1H-pyrrolo[3,2-b]pyridine-3-carboxamide] | 13 | 32 |
| CC(C)(C)n1cc2c(n1)C(=O)CC1(CCN(C(=O)c3ccc4cc(C(N)=O)[nH]c4c3)CC1)C2 [Example 34] | 2.8 | 8.1 |
| CC(C)n1ncc2c1C(=O)CC1(CCN(C(=O)c3ccc4c(C#N)n[nH]c4c3)CC1)C2 [Example 17] | 11 | 19 |
| CC(C)n1ncc2c1C(=O)CC1(CCN(C(=O)c3ccc4[nH]c(C(N)=O)nc4c3)CC1)C2 [Example 21, 5-[(1-isopropyl-7-oxo-1,4,6,7-tetrahydro-1′H-spiro[indazole-5,4′-piperidin]-1′-yl)carbonyl]-1H-benzimidazole-2-carboxamide] | 6.7 | 47 |
| CC(C)n1ncc2c1C(=O)CC1(CCN(C(=O)c3cnc4[nH]nc(C(N)=O)c4c3)CC1)C2 [Example 18, 5-[(1-isopropyl-7-oxo-1,4,6,7-tetrahydro-1′H-spiro[indazole-5,4′-piperidin]-1′-yl)carbonyl]-1H-pyrazolo[3,4-b]pyridine-3-carboxamide] | 22 | 33 |
| CC(C)n1ncc2c1C(=O)CC1(CCN(C(=O)c3cnc4c(C#N)c[nH]c4c3)CC1)C2 [Example 23, 6-[(1-isopropyl-7-oxo-1,4,6,7-tetrahydro-1′H-spiro[indazole-5,4′-piperidin]-1′-yl)carbonyl]-1H-pyrrolo[3,2-b]pyridine-3-carbonitrile] | 15 | 32 |
| CNC(=O)c1n[nH]c2ccc(C(=O)N3CCC4(CC3)CC(=O)c3c(cnn3C(C)C)C4)cc12 [Example 9] | 2.9 | 8.4 |

More lines, in order of falling IC50 [1], values ahead:

| IC50 [1] [nM] | IC50 [2] [nM] | SMILES |
| --- | --- | --- |
| 2.8 | 6.4 | CC(C)(C)n1cc2c(n1)C(=O)CC1(CCN(C(=O)c3ccc4[nH]nc(C#N)c4c3)CC1)C2 [Example 43] |
| 2.8 | 23 | CC(C)(C)n1cc2c(n1)C(=O)CC1(CCN(C(=O)c3cnc4c(C(N)=O)c[nH]c4c3)CC1)C2 [Example 45, 6-[(2-tert-butyl-7-oxo-2,4,6,7-tetrahydro-1′H-spiro[indazole-5,4′-piperidin]-1′-yl)carbonyl]-1H-pyrrolo[3,2-b]pyridine-3-carboxamide] |
| 2.7 | 6.1 | CCNC(=O)c1n[nH]c2ccc(C(=O)N3CCC4(CC3)CC(=O)c3c(cnn3C(C)C)C4)cc12 [Example 10] |
| 2.6 | 9.4 | CC(C)(C)n1cc2c(n1)C(=O)CC1(CCN(C(=O)c3cnc4[nH]cc(C(N)=O)c4c3)CC1)C2 [Example 30] |
| 1.7 | 4 | CCNC(=O)c1n[nH]c2ccc(C(=O)N3CCC4(CC3)CC(=O)c3nn(C(C)(C)C)cc3C4)cc12 [Example 36] |
| 1.5 | 9.8 | CNc1nc2cc(C(=O)N3CCC4(CC3)CC(=O)c3nn(C(C)(C)C)cc3C4)ccc2[nH]1 [Example 39] |
| 1.4 | 6 | CC(C)n1ncc2c1C(=O)CC1(CCN(C(=O)c3ccc4c(C(N)=O)c[nH]c4c3)CC1)C2 [Example 1, 6-[(1-isopropyl-7-oxo-1,4,6,7-tetrahydro-1′H-spiro[indazole-5,4′-piperidin]-1′-yl)carbonyl]-1H-indole-3-carboxamide] |
| 1.3 | 5.3 | CC(C)(C)n1cc2c(n1)C(=O)CC1(CCN(C(=O)c3ccc4ccc(N)nc4c3)CC1)C2 [Example 47, 1′-[(2-aminoquinolin-7-yl)carbonyl]-2-tert-butyl-2,4-dihydrospiro[indazole-5,4′-piperidin]-7(6H)-one] |
| 1.3 | 2.9 | CNC(=O)c1n[nH]c2ccc(C(=O)N3CCC4(CC3)CC(=O)c3nn(C(C)(C)C)cc3C4)cc12 [Example 37] |
| 1.1 | 4.3 | CC(C)(C)n1cc2c(n1)C(=O)CC1(CCN(C(=O)c3ccc4[nH]nc(C(=O)NCC(F)(F)F)c4c3)CC1)C2 [Example 38] |
